{"source": "patent US20240252670A1", "about": "“ANTIBODY DRUG CONJUGATE, PREPARATION METHOD THEREFOR AND APPLICATION THEREOF” (TSINGHUA UNIVERSITY, priority 2021, published 2024)", "key": {"[1]": {"molecular_target": "T1, PD-L1 on MC38 cell surfaces (Mus musculus, UniProt Q9EP73)", "T1 construct": "endogenous in cells; host or cells: MC38 cells", "T1 sequence (Q9EP73 19-290)": "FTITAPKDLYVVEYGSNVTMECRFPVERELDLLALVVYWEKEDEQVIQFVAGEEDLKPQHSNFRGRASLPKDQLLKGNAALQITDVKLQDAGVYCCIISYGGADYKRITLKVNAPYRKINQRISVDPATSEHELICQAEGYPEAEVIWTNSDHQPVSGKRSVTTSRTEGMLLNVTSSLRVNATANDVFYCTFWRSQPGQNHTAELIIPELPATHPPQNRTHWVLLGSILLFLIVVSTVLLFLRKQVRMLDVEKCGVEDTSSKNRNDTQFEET", "experiment": "FACS detection of antigen-binding capacity on PD-L1 positive MC38 cells (FITC secondary antibody)", "procedure": "MC38 cells were treated with anti-PD-L1 antibody, anti-PD-L1 THIOMAB and ADC HE-S2, and then stained with FITC-labeled goat anti-human secondary antibody; the FITC signal intensity on MC38 surfaces was analyzed by FACS technique detection. A. The histograms of different colors represent, from top to bottom, the fluorescence signals measured for the negative control (NC) group, the secondary antibody group, the anti-PD-L1 antibody group, the anti-PD-L1 THIOMAB group, and the ADC HE-S2 group, respectively. B. Mean fluorescence intensity (MFI) measured after treatment with different antibody-based drugs on MC38. NC group: the negative control only added with the isotype antibody, with no secondary antibody added for staining; secondary antibody group: the control group added with the isotype antibody and stained with fluorescent secondary antibody. […]\nWith PD-L1 positive MC38 as a platform, the inventors verified whether ADC HE-S2 and the gene-modified anti-PD-L1 THIOMAB retained the original antibody-antigen binding capacity by using a fluorescence activated cell sorting (FACS) technique. […] The stained MC38 cells were analyzed on a BD FACSAria™ III flow cytometer, and the strength of FITC fluorescence signals on MC38 cells treated with different antibody-based drugs was detected and compared, so as to characterize the affinity of ADC, THIOMAB and antibodies to PD-L1."}, "[2]": {"test_system": "wild-type DC 2.4 cells and Cd274 knockout DC 2.4 cells", "experiment": "Internalization and selectivity in DC cells, IncuCyte intensity-time curves with FBS or mouse serum blocking", "format": "cell-based", "procedure": "The total red object integrated intensity-time variation curves for anti-PD-L1 THIOMAB labeled with pHrodo™ red dye in the wild-type DC 2.4 cell line and the Cd274 knockout DC 2.4 cell line. […] After addition of labeled anti-PD-L1 antibody, incubation was performed for 30 minutes at 4° C. to allow complete binding of antigen and antibody. The internalization of the antibodies was then analyzed by using the IncuCyte® viable cell system. A. Cells were cultured in a culture medium containing 10% FBS. B. Cells were cultured in a culture medium containing 10% mouse serum. C. After 6 hours, high-definition phase images, red fluorescence images and combined images of DC 2.4 cells were collected by using the IncuCyte® viable cell system. Student's t test was used to compare significant differences between the groups, and p<0.0001 is represented by ****.\nTo verify this hypothesis, the inventors used 10% mouse serum and 10% FBS as blocking agents which were added to cell culture media in groups, respectively. Relative to FBS, murine IgG enriched in mouse serum could block Fcγ receptors on the surface of DC 2.4 more effectively, thereby inhibiting the antibody internalization process mediated by Fcγ receptors on DC cells. […]"}, "[3]": {"test_system": "MC38 tumor", "experiment": "Anti-tumor activity and survival in MC38 mouse tumor model", "format": "in vivo", "settings": "MC38 mice, i.p.; antibody drugs 150 μg per mouse, D18 25 μg per mouse; schedule Table 1", "excerpt": "A. Treatment with ADC HE-S2, single administration of anti-PD-L1 antibody, D18, or anti-PD-L1 THIOMAB, and anti-PD-L1 antibody/D18 combined administration for inhibitory activity against mouse MC38 tumor growth. B. Whole animal survival study. The ordinate of the curve represents the percentage of tumor-bearing mice that remained alive after different days, and the abscissa thereof represents the number of experimental days. C. Treatment with ADC HE-S2, single administration of anti-PD-L1 antibody, D18, or anti-PD-L1 THIOMAB, and anti-PD-L1 antibody/D18 combined administration for inhibitory activity against mouse MC38 tumor growth. Student's t test was used to compare significant differences between the groups, and p<0.001 is represented by ***.\nTo verify the anti-cancer activity of ADC HE-S2, the inventors first made a mouse model with MC38. After the tumor was loaded, a visible tumor could be observed on the mouse surface for about one week. When the mean tumor tissue volume of the mice reached 100 mm^3, the mice were randomly grouped as follows according to the final type of drug administered: IgG isotype control antibody group (abbreviated as IgG), anti-PD-L1 antibody group (anti-PD-L1), anti-PD-L1 THIOMAB group (Thiomab), D18 group (D18), D18/anti-PD-L1 antibody combination treatment group (anti-PD-L1 & D18), and ADC HE-S2 group (ADC HE-S2), with 7-8 mice per group. The IgG isotype control antibody group, the anti-PD-L1 antibody (i.e., avelumab as described in Example 2) group, and the anti-PD-L1 THIOMAB (i.e., mutant antibody prepared in Example 2) group were administered twice a week via intraperitoneal injection of 150 μg per mouse for each time. The D18 group was administered twice a week via intraperitoneal injection of 25 μg per mouse for each time. In the D18/anti-PD-L1 antibody combination treatment group, the anti-PD-L1 antibody was dosed twice a week, 150 μg per mouse for each time; the D18 was dosed […], 25 μg per mouse for each time; in the ADC HE-S2 group, ADC HE-S2 was dosed once a week via intraperitoneal injection of 150 μg per mouse for each time; the anti-PD-L1 antibody was dosed once a week, staggered from the administration of the ADC, via intraperitoneal injection of 150 μg per mouse for each time.\nDosage: Antibody drugs, administered 150 μg per mouse for each time, and D18, administered 25 μg per mouse for each time. - means no administration on the day. * Only mice with MC38 tumor model were allowed to be administered until the 24th day, and mice with B16 tumor model were no longer administered after the 21st day."}}}
{"substance": "anti-PD-L1 THIOMAB: mutant avelumab, light chain V205C (SEQ ID NO: 9), heavy chain SEQ ID NO: 4; pHrodo red labeled in internalization tests", "values": [{"measurement": "MFI compared with the natural anti-PD-L1 antibody (Student's t test)", "setting": "[1]", "value": "no significant difference"}, {"measurement": "fluorescence intensity variation curves, wild-type vs Cd274 knockout DC 2.4 cells", "setting": "[2]; 10% FBS blocking", "value": "very similar fluorescence intensity variation curves"}, {"measurement": "speed of increase in total red object integrated intensity in wild-type DC cells vs Cd274 knockout DC cells", "setting": "[2]; 10% mouse serum blocking, p<0.0001", "value": "significantly higher"}, {"measurement": "inhibitory activity against MC38 tumor growth", "setting": "[3]", "value": "slightly superior to the efficacy of the IgG isotype antibody"}]}
